Results reported in US6815455B1, “Benzimidazole compounds and drugs containing the same” (Fuji Photo Film Co., Ltd., priority 1999, dated 2004).
Like-named read-outs stand apart in the source and are kept apart here.

System: mouse peritoneal macrophages
Assay: In vitro experiment using mouse peritoneal macrophages: suppression of foaming, cholesterol ester (CE) yield
Assay type: cell-based
Settings: for inhibitory effect on macrophages (rate of cholesterol ester synthesis), in words: mouse peritoneal macrophages, 5 μM
[1] = test compound 5 μM with liposomes, 16 hours, cholesterol ester yield relative to control without test compound = 100%, smaller value = more potent suppression

For “1-(5-benzimidazolyl-2-thio)pentyl-1,2,3,4-tetrahydro-quinoline [Compound 34]”, the “CE yield (%)” value was 21%.

In the case of CC(C)c1cc(C(C)C)c(NC(=O)CN2CCN(CCSc3nc4ccccc4[nH]3)CC2)c(C(C)C)c1 [Ref. 2, reference compound], the “inhibitory effect on macrophages (rate of cholesterol ester synthesis), in words” value (from here on “inhibitory effect on macrophages”) is reported as “almost no inhibitory effect” and the “CE yield (%)” value [1] is reported as 98%.

With c1ccc2[nH]c(SCCOCCN3CCOCC3)nc2c1 [Compound 50, 4-(2-(2-benzimidazoyl-2-thio)ethoxy)ethylmorpholine] the “CE yield (%)” value [1] was 4.6%.

“2-(6-(1-(4-hydroxy-4-phenyl)piperidino)heptyl)-1H-benzimidazole [Compound 58]” was tested, and the “CE yield (%)” value was 20%.

For “1-(5-(benzimidazoyl-2-thio)pentyl)piperidine [Compound 1]”, the “CE yield (%)” value was 22%.

With “2-(6-(1-(4-cyano-4-phenyl)piperidino)heptyl)-1H-benzimidazole [Compound 57]” the “CE yield (%)” value was 22%.

In the case of N#CC1(c2ccccc2)CCN(CCCCCOc2nc3ccccc3[nH]2)CC1 [Compound 55, 1-(5-(benzimidazoyl-2-oxy)pentyl)-4-cyano-4-phenyl-piperidine], the “CE yield (%)” value is reported as 21%.

For “2-(5-(4-morpholino))-5-methylbenzimidazole [Compound 9]”, the “CE yield (%)” value [1] was 21%.

In the case of CCCn1c(SCCCCCN2CCOCC2)nc2ccccc21 [Compound 6, 4-(5-(1-propylbenzimidazolyl-2-thio)pentyl)morpholine], the “CE yield (%)” value [1] is reported as 27%.

O=C(CCCCSc1nc2ccccc2[nH]1)N1CCCc2ccccc21 [Compound 33, 1-(5-(4-benzimidazolyl-2-thio)valeryl)-1,2,3,4-tetrahydro-quinoline] was tested, and the “CE yield (%)” value [1] was 18%.

“2-(5-(4-morpholino))-5-methoxybenzimidazole [Compound 19]” was tested, and the “CE yield (%)” value [1] was 24%.

For COc1ccc2[nH]c(SCCN3CCNCC3)nc2c1 [Ref. 5, reference compound], the “inhibitory effect on macrophages” value was “completely inactive” and the “CE yield (%)” value [1] was 102%.

With “4-(5-(benzimidazolyl-2-thio)pentyl)morpholine [Compound 2]” the “CE yield (%)” value [1] was 18%.

With CCC(=O)n1c(SCCCCCN2CCOCC2)nc2ccccc21 [Compound 7, 4-(5-(1-propionylbenzimidazolyl-2-thio)pentyl)morpholine] the “CE yield (%)” value [1] was 22%.

For O=C(CCN1CCCCC1)CSc1nc2ccccc2[nH]1 [Ref. 4, reference compound], the “inhibitory effect on macrophages” value was “completely inactive” and the “CE yield (%)” value [1] was 89%.

“2-(5-(4-morpholino))-5-chlorobenzimidazole [Compound 20]” was tested, and the “CE yield (%)” value [1] was 25%.

In the case of CC(C)Oc1cccc(OC(C)C)c1NC(=O)CN1CCN(CCCSc2nc3ccccc3[nH]2)CC1 [Ref. 1, reference compound], the “inhibitory effect on macrophages” value is reported as “almost no inhibitory effect” and the “CE yield (%)” value [1] is reported as 95%.

For CCCCCCN(CCCCCSc1nc2ccccc2[nH]1)C(=O)Nc1ccc(F)cc1F [Ref. 3, reference compound], the “inhibitory effect on macrophages” value was “almost no inhibitory effect” and the “CE yield (%)” value [1] was 78%.
